Results on 27 molecules are retold here after paper PMC6008492, “Structure activity relationship studies on rhodanines and derived enethiol inhibitors of metallo-β-lactamases” (Bioorganic & Medicinal Chemistry, 2018).

One assay deals with SPM-1 (Pseudomonas aeruginosa, UniProt Q8G9Q0). Put plainly: SPM-1 inhibition, fluorogenic cephalosporin (FC5) hydrolysis. In kind it is biochemical. Particulars: enethiols 6 assayed as sodium salts; 10 min incubation; read-out: IC50 SPM-1 (converted). How it is done:
(§1) Inhibition analyses against bacterial MBLs and SBLs were performed as described previously.[22], [24], [26] Residual enzyme activities were determined for a range of inhibitor concentrations. Non-linear regression fitting of IC50 curves was carried out using a three-parameter dose–response curve in GraphPad Prism. Errors in IC50 values are expressed as: σ(logIC50)/logIC50×IC50
(§2) We first screened the inhibitors against a representative set of presently clinically important and other MBLs[22], comprising both Class B1 enzymes (NDM-1, New Delhi MBL-1; VIM-2, Verona integron–encoded MBL-2; BcII, Bacillus cereus II MBL; SPM-1, São Paulo MBL-1; IMP-1, imipenemase MBL-1) and the Class B2 MBL CphA (carbapenem hydrolysing MBL from Aeromonas hydrophila).[22] The latter MBL (CphA) only utilises one active site Zn(II) ion in catalysis, whilst the others normally use two Zn(II) ions.
Figure S5: IC50 curves for SPM-1 inhibition time courses. Residual activities were calculated from the
(§3) initial rate of FC5 hydrolysis after incubation of the enzyme with the inhibitor for 10 minutes. […]

Another assay concerns the target T1, IMP-1 (Serratia marcescens, UniProt P52699).
T1 construct: made in house
Put plainly: IMP-1 inhibition, fluorogenic cephalosporin (FC5) hydrolysis. Type of assay: biochemical. To be noted: enethiols 6 assayed as sodium salts; 10 min incubation; read-out: IC50 IMP-1 (converted). The protocol:
as §1, §2
Figure S3: IC50 curves for IMP-1 inhibition time courses. Residual activities were calculated from the
initial rate of FC5 hydrolysis after incubation of the enzyme with the inhibitor for 10 minutes.

For another assay, the target named is T2, BcII (Bacillus cereus, UniProt P04190).
T2 construct: made in house
T2 sequence (P04190 31-257): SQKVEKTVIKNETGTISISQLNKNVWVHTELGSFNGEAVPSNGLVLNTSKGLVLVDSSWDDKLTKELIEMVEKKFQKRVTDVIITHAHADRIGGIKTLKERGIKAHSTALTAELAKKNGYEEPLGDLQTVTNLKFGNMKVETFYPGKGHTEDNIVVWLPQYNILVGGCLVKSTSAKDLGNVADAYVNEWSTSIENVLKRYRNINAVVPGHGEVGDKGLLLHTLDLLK
Put plainly: biochemical. To be noted: enethiols 6 assayed as sodium salts; 10 min incubation; read-out: IC50 BcII (converted). How it is done: as §1, §2
Figure S2: IC50 curves for BcII inhibition time courses. Residual activities were calculated from the initial
rate of FC5 hydrolysis after incubation of the enzyme with the inhibitor for 10 minutes. […]

Another assay concerns the target T3, VIM-2 (Escherichia coli, UniProt Q5U7L7).
T3 construct: made in house
Put plainly: biochemical. To be noted: enethiols 6 assayed as sodium salts; 10 min incubation; read-out: IC50 VIM-2 (converted). How it is done:
as §1
as §2, with “ions. We also screened the inhibitors against a representative panel of SBLs from different classes (TEM-1, Temoneira β-lactamase-1, class A; CTX-M-15, cefotaxime hydrolysing β-lactamase from Munich 15, class A, extended spectrum β-lactamase (ESBL); AmpC E. coli, class C, and OXA-10, oxacillinase-10, class D).” for “ions.”
Figure S6: IC50 curves for VIM-2 inhibition time courses. Residual activities were calculated from the
as §3

The next assay deals with T4, NDM-1 (Klebsiella pneumoniae, UniProt C7C422).
T4 construct: made in house
T4 sequence (C7C422 29-270, looked up, species assumed): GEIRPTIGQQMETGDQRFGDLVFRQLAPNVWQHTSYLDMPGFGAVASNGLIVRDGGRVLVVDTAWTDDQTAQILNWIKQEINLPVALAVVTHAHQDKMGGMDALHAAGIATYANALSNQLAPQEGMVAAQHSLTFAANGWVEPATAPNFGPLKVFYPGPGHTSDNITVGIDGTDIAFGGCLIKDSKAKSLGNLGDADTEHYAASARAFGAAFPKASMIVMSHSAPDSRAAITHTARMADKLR
Put plainly: NDM-1 inhibition, fluorogenic cephalosporin (FC5) hydrolysis. Type of assay: biochemical. Particulars: enethiols 6 assayed as sodium salts; 10 min incubation; read-out: IC50 NDM-1. The protocol: as §1, §2
Figure S4: IC50 curves for NDM-1 inhibition time courses. Residual activities were calculated from the
as §3

A value given as a limit tells only on which side of the number the result lay.

T1 sequence (P52699 19-246, looked up, species assumed): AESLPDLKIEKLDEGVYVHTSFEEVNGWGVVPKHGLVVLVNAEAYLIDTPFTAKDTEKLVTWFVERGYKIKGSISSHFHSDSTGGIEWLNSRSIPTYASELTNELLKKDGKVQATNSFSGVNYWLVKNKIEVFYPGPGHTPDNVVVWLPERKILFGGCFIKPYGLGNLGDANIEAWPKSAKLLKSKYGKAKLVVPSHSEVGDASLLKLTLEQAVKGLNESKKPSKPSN
Sequence of SPM-1 (Q8G9Q0 entry or part of it): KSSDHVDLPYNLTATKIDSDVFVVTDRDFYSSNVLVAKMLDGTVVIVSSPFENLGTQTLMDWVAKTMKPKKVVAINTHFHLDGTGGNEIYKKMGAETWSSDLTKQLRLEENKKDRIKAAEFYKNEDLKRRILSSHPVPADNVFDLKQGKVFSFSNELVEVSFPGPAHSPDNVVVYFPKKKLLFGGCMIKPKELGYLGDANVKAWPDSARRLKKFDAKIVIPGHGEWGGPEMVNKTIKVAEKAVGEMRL

Consider `O=C(O)CN1C(=O)/C(=C/c2csc3ccccc23)SC1=S` [Compound 3L], for which the half-inhibitory concentration (IC50) on SPM-1 was 13.9 ± 0.5 µM; at IMP-1, greater than 50 µM; at BcII it was 21.7 ± 2.4 µM; on VIM-2, 36.9 ± 0.2 µM; at NDM-1 it was greater than 50 µM.

As for `O=C(O)CN1C(=O)/C(=C/c2ccccc2)SC1=S` [Compound 3a], the IC50 was greater than 50 µM on SPM-1; greater than 50 µM at IMP-1; greater than 50 µM on BcII; 36.8 ± 0.3 µM on VIM-2; greater than 50 µM on NDM-1.

As to `Cc1ccc(/C=C2\SC(=S)N(CC(=O)O)C2=O)cc1` [Compound 3b], the IC50 is greater than 50 µM at SPM-1; greater than 50 µM at IMP-1; greater than 50 µM on BcII; 32 ± 0.7 µM at VIM-2; greater than 50 µM at NDM-1.

For `O=C(O)CN1C(=O)/C(=C/c2ccc(F)cc2)SC1=S` [Compound 3c], the half-maximal inhibitory concentration (IC50) is greater than 50 µM at SPM-1; greater than 50 µM at IMP-1; greater than 50 µM on BcII; 34.5 ± 0.6 µM at VIM-2; greater than 50 µM at NDM-1.

For the molecule `O=C(O)CN1C(=O)/C(=C/c2ccc(Br)cc2)SC1=S` [Compound 3d], the half-inhibitory concentration (IC50) was 39.7 ± 0.8 µM at SPM-1; greater than 50 µM on IMP-1; greater than 50 µM on BcII; greater than 50 µM on VIM-2; greater than 50 µM on NDM-1.

On to `COc1ccc(/C=C2\SC(=S)N(CC(=O)O)C2=O)cc1` [Compound 3e], for which the half-inhibitory concentration (IC50) on SPM-1, on IMP-1, on BcII, on VIM-2 and at NDM-1 was greater than 50 µM throughout.

For `O=C(O)CN1C(=O)/C(=C/c2ccccc2F)SC1=S` [Compound 3f], the 50% inhibitory concentration (IC50) is greater than 50 µM at SPM-1; greater than 50 µM on IMP-1; greater than 50 µM on BcII; 17.6 ± 0.7 µM on VIM-2; greater than 50 µM at NDM-1.

`O=C(O)CN1C(=O)/C(=C/c2ccccc2Cl)SC1=S` [Compound 3g]: the IC50 at SPM-1 is 25.1 ± 1.5 µM; at IMP-1, 43.2 ± 2.1 µM; at BcII, greater than 50 µM; on VIM-2, 6.7 ± 0.2 µM; at NDM-1, greater than 50 µM.

On to `O=C(O)CN1C(=O)/C(=C/c2ccccc2Br)SC1=S` [Compound 3h], for which the concentration for half-maximal inhibition (IC50) at SPM-1 was 36.6 ± 0.8 µM; on IMP-1, 32.5 ± 1.3 µM; at BcII, greater than 50 µM; on VIM-2, greater than 50 µM; on NDM-1, greater than 50 µM.

`O=C(O)CN1C(=O)/C(=C/c2ccccc2I)SC1=S` [Compound 3i]: the IC50 is 2 ± 0.5 µM at SPM-1; 22.4 ± 0.4 µM at IMP-1; 31.7 ± 1 µM on BcII; 5.9 ± 0.1 µM at VIM-2; greater than 50 µM at NDM-1.

Consider `O=C(O)CN1C(=O)/C(=C/c2c(F)cccc2Cl)SC1=S` [Compound 3j], for which the IC50 on SPM-1 is 1.2 ± 0.3 µM; at IMP-1 it was 43.7 ± 0.5 µM; on BcII it was greater than 50 µM; on VIM-2, 9.8 ± 2.8 µM; on NDM-1, greater than 50 µM.

In the case of `O=C(O)CN1C(=O)/C(=C/c2c(F)ccc(F)c2F)SC1=S` [Compound 3k], the IC50 was 8.8 ± 0.3 µM on SPM-1; 46.5 ± 0.7 µM at IMP-1; 27 ± 2.2 µM on BcII; 47.6 ± 0.4 µM at VIM-2; greater than 50 µM at NDM-1.

With `O=C(O)CN1C(=O)/C(=C/c2c(Cl)cccc2Cl)SC1=S` [Compound 3m], the IC50 on SPM-1 was 3.5 ± 0.4 µM; at IMP-1, 18.9 ± 0.8 µM; on BcII, 41.8 ± 2.3 µM; on VIM-2 it was 0.6 ± 0.1 µM; on NDM-1 it was greater than 50 µM.

As for `O=C(O)CN1C(=O)/C(=C/c2cccc(Cl)c2Cl)SC1=S` [Compound 3n], the IC50 at SPM-1 was 1 ± 0.1 µM; at IMP-1, 46.2 ± 1.4 µM; at BcII it was 22.1 ± 1 µM; on VIM-2, 7.6 ± 0.3 µM; at NDM-1 it was greater than 50 µM.

As to `O=C(O)CN1C(=O)/C(=C/c2cc(Cl)ccc2Cl)SC1=S` [Compound 3o], the concentration for half-maximal inhibition (IC50) at SPM-1 was 16.6 ± 1 µM; on IMP-1, greater than 50 µM; on BcII, greater than 50 µM; at VIM-2, greater than 50 µM; at NDM-1, greater than 50 µM.

Take `O=C(O)CN1C(=O)/C(=C/c2c(F)cccc2F)SC1=S` [Compound 3p]: the IC50 on SPM-1 was 32.1 ± 2.3 µM; at IMP-1 it was greater than 50 µM; at BcII, greater than 50 µM; at VIM-2 it was 6.8 ± 0.2 µM; at NDM-1, greater than 50 µM.

With `Cc1cccc(C)c1/C=C1\SC(=S)N(CC(=O)O)C1=O` [Compound 3q], the IC50 at SPM-1 is greater than 50 µM; at IMP-1, greater than 50 µM; at BcII it was greater than 50 µM; on VIM-2, 18.7 ± 1 µM; on NDM-1, greater than 50 µM.

Consider `CN1CCN(NC(=O)CN2C(=O)/C(=C/c3csc4ccccc34)SC2=S)CC1` [Compound 5L], for which the IC50 at SPM-1 was greater than 50 µM; on IMP-1, greater than 50 µM; at BcII it was 7.2 µM; at VIM-2, 41.8 µM; on NDM-1, greater than 50 µM.

With `Cc1ccc(/C=C2\SC(=S)N(CC(=O)NN3CCN(C)CC3)C2=O)cc1` [Compound 5b], the half-inhibitory concentration (IC50) on SPM-1 was greater than 50 µM; at IMP-1, greater than 50 µM; at BcII it was greater than 50 µM; at VIM-2, greater than 50 µM; on NDM-1 it was 28 µM.

In the case of `CN1CCN(NC(=O)CN2C(=O)/C(=C/c3ccc(F)cc3)SC2=S)CC1` [Compound 5c], the IC50 at SPM-1, on IMP-1, on BcII, on VIM-2 and on NDM-1 was greater than 50 µM each time.

`CN1CCN(NC(=O)CN2C(=O)/C(=C/c3ccc(Br)cc3)SC2=S)CC1` [Compound 5d]: the IC50 was greater than 50 µM on SPM-1; 28.7 µM on IMP-1; greater than 50 µM at BcII; 44 µM on VIM-2; greater than 50 µM on NDM-1.

As for `COc1ccc(/C=C2\SC(=S)N(CC(=O)NN3CCN(C)CC3)C2=O)cc1` [Compound 5e], the IC50 was greater than 50 µM on SPM-1; 31.5 µM on IMP-1; greater than 50 µM on BcII; greater than 50 µM on VIM-2; 48.9 µM at NDM-1.

Turning to `CN1CCN(NC(=O)CN2C(=O)/C(=C/c3ccccc3F)SC2=S)CC1` [Compound 5f], the IC50 was 42.7 µM on SPM-1; 22.6 µM at IMP-1; 26.3 µM on BcII; 6.2 µM on VIM-2; greater than 50 µM on NDM-1.

As for `CN1CCN(NC(=O)CN2C(=O)/C(=C/c3ccccc3Cl)SC2=S)CC1` [Compound 5g], the half-inhibitory concentration (IC50) on SPM-1 is 9.8 µM; on IMP-1, 7.6 µM; at BcII, greater than 50 µM; at VIM-2, 2 µM; on NDM-1 it was greater than 50 µM.

Consider `CN1CCN(NC(=O)CN2C(=O)/C(=C/c3ccccc3Br)SC2=S)CC1` [Compound 5h], for which the IC50 at SPM-1 is 8.1 µM; on IMP-1, 8.3 µM; on BcII, 14.6 µM; on VIM-2 it was 11.4 µM; on NDM-1 it was greater than 50 µM.

For `O=C(O)/C(S)=C/c1ccc(Br)cc1` [Compound 6d], the IC50 at SPM-1 was 2.3 µM; on IMP-1, 3.3 µM; at BcII, 9.9 µM; at VIM-2, 9.4 µM.

Consider `O=C(O)/C(S)=C/c1ccccc1I` [Compound 6i], for which the half-maximal inhibitory concentration (IC50) at SPM-1 was 1.4 µM; on IMP-1, 0.7 µM; at VIM-2, 3.5 µM; on NDM-1, 5 µM.

By IC50 is commonly meant the concentration at which inhibition is half-maximal.
